Laboratory results as given in patent US20260206796A1, “FEED COMPOSITIONS” (Solugen, Inc., priority 2023, published 2026).
Where a name gives a salt, the structure may show the parent alone.

How the values were obtained:
Format in all cases: in vivo
tilapia [1] = assay: 2 month tilapia growth trial on soybean meal-based diets (growth, feed conversion, phosphorus discharge); settings: additive 0.5 wt. % in diet; for Fecal phosphorus content compared to control diet: feces after 2 months on diets; for Phosphorus discharge (via urine) in the water compared to soybean based control diet: new clean water sampled after 4 hours
From the text: The efficacy of an FIA used as fish feed was investigated. The aim of this study was to assess the efficacy of (i) a feed comprising an FIA of the type disclosed herein (e.g., gluconate) on the growth, phosphorus discharge, biochemical composition and histopathology in tilapia when compared to (ii) a soybean meal-based diet that would have a similar formulation as commercial feeds or (iii) a soybean meal-based diet that includes an FIA of the type disclosed herein or sodium citrate, respectively. Sodium citrate was chosen because this is a competitive chelator and has in the past shown to improve phosphorus utilization/reduce phosphorus discharge in various aquatic animals.
To compare the efficacy of an FIA of the type disclosed herein, a total of 4 isonitrogenous and isolipidic diets were formulated to satisfy the nutritional requirements of tilapia. The crude protein and crude lipid content of the diets were all 32 wt. % and 8 wt. %, respectively. However, the percentages of proteins and supplements were altered to satisfy the aims of this study. Soybean meal was used across all diets. Diet 1 was the control with only soybean meal (cellulose at 0.5 wt. %).
The FIA appeared like packaging peanuts, and thus needed to be ground into a fine powder for the product to be adequately mixed in the diet. All diets were made using a pelleter and the pellets were dried in an oven at 60° C. and stored at −20° C. until use.
A total of 90 all male tilapia were equally distributed among 9 oval polyethylene tanks that ran on a recirculating system. Thus, all the fish shared the same water throughout the 2 month growth trial. After the fish were stocked, of approximately equal size, the tanks were randomly allocated their treatments in triplicate. For the first week, the tilapia were fed the control diet to acclimate them to the experimental conditions and then after a week were hand fed twice daily to apparent satiation on their respective experimental diets.
Throughout the study, excess waste was manually siphoned out of the system and water exchanges were provided weekly. Feed intake was recorded to later calculate the feed conversion ratio. Fish feces were collected, dried and measured for the phosphorus levels after 2 months.
(§1) After 2 months, all the fish were weighed to assess weight gain. Two fish/tank were sampled for liver and intestinal histopathology and the muscle sent out for biochemical analysis. The remaining fish were placed in new clean water and the water was sampled at 4 hours and measured for phosphorus levels mostly derived from urine.

tilapia [2] = assay: Liver and intestinal histopathology of tilapia after 2 months on the diets; settings: for Intestinal histopathology / Liver histopathology / hepatic toxicity: additive 0.5 wt. % in diet, hematoxylin and eosin staining
Experimental: as §1

freshwater shrimp = assay: 10 week shrimp feeding trial with feed additives (phosphate level in tank water, survival); settings: for Shrimp survival rate: over 10 weeks of feeding trial, 1.2% additive in diet
From the text: To validate if gluconates can be used as an acidulant additives in fish feed to increase shrimp's digestion and reduce phosphate discharge to aquaculture farm water, freshwater shrimp were fed with 1) regular shrimp diet as a control, 2) the same shrimp diet with 1.2% of an FIA, particularly gluconate, as disclosed herein and 3) the shrimp diet with 1.2% sodium citrate as an additive.
Phosphate reduction was equivalently high level to slightly better than citric acid up to 12.5 wt. %. This functionality of reducing phosphate level in discharged water from aquaculture farms is beneficial with respect to environmental regulations as aquaculture farmers are dealing with and the restrictions on the allowed phosphate level in the discharged water waste from aquaculture farms.

| Compound | Fecal phosphorus content compared to control diet (tilapia [1]) | Phosphorus discharge (via urine) in the water compared to soybean based control diet (tilapia [1]) | Intestinal histopathology (tilapia [2]) | Liver histopathology / hepatic toxicity (tilapia [2]) | Liver histopathology / hepatic toxicity (tilapia [2]; listed as Sodium citrate) | Intestinal histopathology (tilapia [2]; listed as citrate) | Shrimp survival rate (freshwater shrimp) [%] | Overall safety for consumption at the level tested (tilapia [2]; 0.5 wt. % in diet) | Liver histopathology / hepatic toxicity (tilapia [2]; listed as FIA) | Liver histopathology / hepatic toxicity (tilapia [2]; listed as sugar oxidation product) | Phosphate reduction compared to citric acid (freshwater shrimp; 1.2% additive in shrimp diet, vs citric acid additive diet) | Phosphate reduction in tank water compared to control (regular shrimp diet) (freshwater shrimp; 1.2% additive in shrimp diet, vs control diet) |
| --- | --- | --- | --- | --- | --- | --- | --- | --- | --- | --- | --- | --- |
| O=C(O)CC(O)(CC(=O)O)C(=O)O [sodium citrate, reference compound] | significantly less | significantly less | inflammation of the intestinal villi and goblet cell hyperplasia | varying degrees of hepatic lesions | hepatic toxicity based on both mild effects (localized inflammation) to severe (extensive necrosis, vacuolization and hemorrhaging) | severe inflammation in goblet cell (gc) and the lamina propria (lp) | 58 |  |  |  |  |  |
| O=C(O)[C@H](O)[C@@H](O)[C@H](O)[C@H](O)CO [gluconate] | significantly less | significantly less | no such adverse effects |  |  |  | 75 | safe for tilapia consumption | no hepatic toxicity | normal sinusoid organization with clear central veins and intact and well dispersed pancreatic islets | up to 12.5 wt. % | up to 19 wt. % |
